Results from patent publication US5300629A, “Bactericidal and/or bacteriostatic peptides isolated from hemolymph of honeybees” (Plant Genetic Systems, N.V., priority 1987, dated 1994).
Values after ≈ are worked out from the molar mass of the structure shown. Where a SMILES comes first, the peptide text is derived from it.

Tested on: Corynebacterium insidiosum NCPPB 1109
Experiment: Minimal inhibitory concentration in liquid culture
Type: cell-based
Details: 200 μl rich medium, 10^4 log-phase bacteria
Protocol: In addition the exact concentration was determined precisely by amino-acid analysis and an equal sample of natural Bee 6b was prepared, allowing to compare the bactericidal activity of both natural and synthetic apidaecins by means of growth inhibition assays in liquid cultures (see mat & Meth.). The minimal inhibitory concentrations (μg/ml) were determined in liquid culture : 200 μl of a rich medium (trypticase soy broth or nutrient broth) was inoculated with 10^4 log-phase bacteria. Peptide concentrations ranged between 0 and 200 μg/ml. The values express μg/ml; when no inhibition was noticed the maximal values are given (+200 μg/ml or +50 μg/ml). All peptides were chemically synthesized, except for bee 6b which is purified from bee lymph.

CC[C@H](C)[C@H](NC(=O)[C@H](Cc1ccc(O)cc1)NC(=O)[C@@H](NC(=O)[C@@H]1CCCN1C(=O)[C@H](CCCNC(=N)N)NC(=O)[C@H](CC(N)=O)NC(=O)[C@H](CC(N)=O)NC(=O)CN)C(C)C)C(=O)N[C@@H](CCC(N)=O)C(=O)N1CCC[C@H]1C(=O)N[C@@H](CCCNC(=N)N)C(=O)N1CCC[C@H]1C(=O)N1CCC[C@H]1C(=O)N[C@@H](Cc1c[nH]cn1)C(=O)N1CCC[C@H]1C(=O)N[C@@H](CCCNC(=N)N)C(=O)N[C@@H](CC(C)C)C(=O)O [Apid PT-1] (H-GNNRPVYIQPRPPHPRL-OH)
minimal inhibitory concentration: 50 µg/mL (≈ 24.9 µM)
